Laboratory results published in patent US20250026734A1 (priority 2021, published 2025).

What was measured:
in vitro [1] = conditions: human
SARS-CoV-2 (WK-521) = assay: microbe, parasite or virus in culture; format: cell-based; conditions: Severe acute respiratory syndrome coronavirus 2, HEK-293T, 72 h; for IC50: read-out: IC50 (concentration of agent which reduces viral production and replication by 50%); for IC90: read-out: IC90 (concentration of agent which reduces viral production and replication by 90%)
[2] = system: MERS-CoV (MERS-CoV-EMC/2012); assay: microbe, parasite or virus in culture; format: cell-based; conditions: Middle East respiratory syndrome-related coronavirus, HEK-293T
[3] = system: SARS-CoV (SARS-CoV-HKU-39849); assay: microbe, parasite or virus in culture; format: cell-based; conditions: Severe acute respiratory syndrome coronavirus, HEK-293T
in vitro [4] = conditions: African green monkey

Row | Structure (SMILES) | CC50 (in vitro [1]) | IC50 (SARS-CoV-2 (WK-521)) | IC90 (SARS-CoV-2 (WK-521)) | IC50 [2] | IC90 [2] | IC50 [3] | IC90 [3] | CC50 (in vitro [4])
1 | CCCCn1c(=O)c2ccc(NC(=O)C(C)C)cc2c2cc(C(O)(C(F)(F)F)C(F)(F)F)ccc21 [NR-16] | 15.8 µM | 0.575 µM | 2.03 µM | – | – | – | – | –
2 | CCCCn1c(=O)c2ccc(NC(=O)CO)cc2c2cc(C(O)(C(F)(F)F)C(F)(F)F)ccc21 [NR-17] | > 20 µM | 0.519 µM | 3.35 µM | – | – | – | – | –
3 | CCCCn1c(=O)c2ccc(NC(=O)C(C)N)cc2c2cc(C(O)(C(F)(F)F)C(F)(F)F)ccc21 (centres unmarked) [NR-28] | 11.8 µM | 0.12 µM | 1.68 µM | – | – | – | – | –
4 | CCCCn1c(=O)c2ccc(NC(=O)[C@H]3CC(O)CN3)cc2c2cc(C(O)(C(F)(F)F)C(F)(F)F)ccc21 (some centres unmarked) [NR-30] | 13.6 µM | 0.059 µM | 1.84 µM | 12.5 µM | 21.8 µM | 6.95 µM | 19.4 µM | –
5 | CCCCn1c(=O)c2ccc(N)cc2c2cc(C(O)(C(F)(F)F)C(F)(F)F)ccc21 [NR-31-5] | > 20 µM | 0.546 µM | 2.63 µM | – | – | – | – | –
6 | CCCCn1c(=O)c2ccc(NCCO)cc2c2cc(C(O)(C(F)(F)F)C(F)(F)F)ccc21 [NR-31] | > 20 µM | 0.063 µM | 1.76 µM | 2.15 µM | 5.96 µM | 0.74 µM | 6.24 µM | 17.6 µM
7 | CCCCn1c(=O)c2ccc(NC(=O)CCO)cc2c2cc(C(O)(C(F)(F)F)C(F)(F)F)ccc21 [NR-38] | > 20 µM | 0.058 µM | > 20 µM | – | – | – | – | –
8 | CCCCn1c(=O)c2ccc(NC(=O)C(C)N)c(F)c2c2cc(C(O)(C(F)(F)F)C(F)(F)F)ccc21 (centres unmarked) [NR-44] | 10.3 µM | 0.38 µM | 3.76 µM | – | – | – | – | –
9 | CCCCn1c(=O)c2ccc(NC(=O)[C@H](N)CO)cc2c2cc(C(O)(C(F)(F)F)C(F)(F)F)ccc21 [NR-47] | 11.7 µM | 0.7 µM | 3.3 µM | – | – | – | – | –
10 | CCCCn1c(=O)c2cc(NC(=O)C(C)N)ccc2c2cc(C(O)(C(F)(F)F)C(F)(F)F)ccc21 (centres unmarked) [NR-50] | 12 µM | 0.65 µM | 4.6 µM | – | – | – | – | –
11 | CCCCn1c(=O)c2cc(NC(=O)[C@@H]3C[C@@H](O)CN3)ccc2c2cc(C(O)(C(F)(F)F)C(F)(F)F)ccc21 [NR-52] | 18.1 µM | 0.14 µM | 2.43 µM | – | – | – | – | –
12 | CCCCn1c(=O)c2cc(F)c(N)cc2c2cc(C(O)(C(F)(F)F)C(F)(F)F)ccc21 [NR-54] | 27.2 µM | 0.94 µM | 4.64 µM | – | – | – | – | –
13 | CCCCn1c(=O)c2cc(F)c(NCc3ccc(O)cc3)cc2c2cc(C(O)(C(F)(F)F)C(F)(F)F)ccc21 [NR-55] | > 80 µM | 0.15 µM | 6.79 µM | – | – | – | – | –
14 | CCCCn1c(=O)c2cc(F)c(NCCO)cc2c2cc(C(O)(C(F)(F)F)C(F)(F)F)ccc21 [NR-56] | 29.5 µM | 0.29 µM | 8.07 µM | – | – | – | – | –
15 | CCCCn1c(=O)c2cc(NC(=O)NCCO)ccc2c2cc(C(O)(C(F)(F)F)C(F)(F)F)ccc21 [NR-72] | 9 µM | 0.62 µM | 2.29 µM | – | – | – | – | –
16 | CCCCn1c(=O)c2cc(F)c(NC3CCOC3)cc2c2cc(C(O)(C(F)(F)F)C(F)(F)F)ccc21 (centres unmarked) [NR-78] | 17.8 µM | 0.65 µM | 3.59 µM | – | – | – | – | –

Row | Structure (SMILES) | CC50 (in vitro [1]) | IC50 (SARS-CoV-2 (WK-521)) | IC90 (SARS-CoV-2 (WK-521)) | IC50 [2] | IC90 [2] | IC50 [3] | IC90 [3] | CC50 (in vitro [4])
17 | CCCCn1c(=O)c2cc(NC=O)ccc2c2cc(C(O)(C(F)(F)F)C(F)(F)F)ccc21 [NR-86] | 16.7 µM | 0.08 µM | 3.07 µM | – | – | – | – | –
18 | CCCCn1c(=O)c2ccc(N)c(SC)c2c2cc(C(O)(C(F)(F)F)C(F)(F)F)ccc21 [NR-87] | 18.2 µM | 0.85 µM | 4.9 µM | – | – | – | – | –
19 | CCCCn1c(=O)c2ccc(NC(CO)CO)cc2c2cc(C(O)(C(F)(F)F)C(F)(F)F)ccc21 [NR-89] | > 20 µM | 0.35 µM | 6.1 µM | 6.77 µM | 19 µM | 4.74 µM | 20.2 µM | –
20 | CCCCn1c(=O)c2ccc(NCC(O)CO)cc2c2cc(C(O)(C(F)(F)F)C(F)(F)F)ccc21 (centres unmarked) [NR-90] | > 20 µM | 0.58 µM | 3.87 µM | 3.84 µM | 13.6 µM | 2.4 µM | 14.2 µM | –
21 | CC(C)Cn1c(=O)c2ccc(NCCO)cc2c2cc(C(O)(C(F)(F)F)C(F)(F)F)ccc21 [NR-91] | > 20 µM | 0.51 µM | 4 µM | – | – | – | – | –
22 | CCCn1c(=O)c2ccc(NCCO)cc2c2cc(C(O)(C(F)(F)F)C(F)(F)F)ccc21 [NR-92] | > 20 µM | 0.72 µM | 3.42 µM | – | – | – | – | –
23 | CCCCn1c(=O)c2ccc(NCC(N)=O)cc2c2cc(C(O)(C(F)(F)F)C(F)(F)F)ccc21 [NR-96] | > 20 µM | 0.68 µM | 4 µM | – | – | – | – | –
24 | CCCCn1c(=O)c2ccc(NCCCO)cc2c2cc(C(O)(C(F)(F)F)C(F)(F)F)ccc21 [NR-98] | > 20 µM | 1.16 µM | > 10 µM | – | – | – | – | –
25 | CCCCn1c(=O)c2ccc(NCCCCO)cc2c2cc(C(O)(C(F)(F)F)C(F)(F)F)ccc21 [NR-99] | > 20 µM | 1.3 µM | > 10 µM | – | – | – | – | –
26 | CCCCn1c(=O)c2ccc(NCCCCCO)cc2c2cc(C(O)(C(F)(F)F)C(F)(F)F)ccc21 [NR-100] | > 20 µM | 0.59 µM | > 10 µM | – | – | – | – | –
27 | CCCCn1c(=O)c2ccc(C(CCO)CCO)cc2c2cc(C(O)(C(F)(F)F)C(F)(F)F)ccc21 [NR-101] | > 20 µM | 0.54 µM | > 10 µM | – | – | – | – | –
28 | CCCCn1c(=O)c2ccc(NCCN)cc2c2cc(C(O)(C(F)(F)F)C(F)(F)F)ccc21 [NR-102] | 5.5 µM | 0.75 µM | 2.4 µM | – | – | – | – | –
29 | CCCCn1c(=O)c2ccc(NCCC)cc2c2cc(C(O)(C(F)(F)F)C(F)(F)F)ccc21 [NR-103] | > 20 µM | 2.35 µM | > 10 µM | – | – | – | – | –
30 | CCCCn1c(=O)c2ccc(NCCN(C)C)cc2c2cc(C(O)(C(F)(F)F)C(F)(F)F)ccc21 [NR-105] | 7.4 µM | 1.48 µM | > 10 µM | – | – | – | – | –
31 | CCCCn1c(=O)c2ccc(NC(C)=O)cc2c2cc(C(O)(C(F)(F)F)C(F)(F)F)ccc21 [TK-04] | 7.13 µM | 0.576 µM | 5.97 µM | – | – | – | – | –
